Columns and labels:
[1] = Dissolution rate of the salt compared with free base and other salts; assay type: physicochemical; conditions: compared to the free base form of the Agent and other salts
[2] = Bioavailability of the salt compared with free base and other salts; assay type: in vivo; conditions: compared to the free base form of the Agent and other salts
[3] = Bioavailability of the free base form from a conventional tablet formulation; conditions: dog, in vivo, oral, in dogs
[4] = Biopharmaceutical Classification System (BCS) classification; assay type: physicochemical; conditions: indicates low solubility/dissolution rate and low permeability

dissolution rate [1] | bioavailability [2] | bioavailability [3] | BCS classification [4] | Structure (SMILES)
particularly high | particularly high |  |  | Cn1cnc2c(F)c(Nc3ccc(Br)cc3Cl)c(C(=O)NOCCO)cc21 [Agent, 6-(4-bromo-2-chloro-phenylamino)-7-fluoro-3-methyl-3H-benzoimidazole-5-carboxylic acid (2-hydroxy-ethoxy)-amide]
 |  | ~18% | BCS Class 4 | Cn1cnc2c(F)c(Nc3ccc(Br)cc3Cl)c(C(=O)NOCCO)cc21 [free-base form of the Agent, 6-(4-bromo-2-chloro-phenylamino)-7-fluoro-3-methyl-3H-benzoimidazole-5-carboxylic acid (2-hydroxy-ethoxy)-amide]

Reference: patent US12318367B2, “Pharmaceutical composition” (ASTRAZENECA AB, priority 2008, dated 2025)
